# Measured values taken from patent US20030203373A1 (priority 2002, published 2003).
# Several values for one entry are separate records, joined by “and”; a condition that tells them apart may be missing. Equal entries are not always repeated. Where two headings read alike, the source gives them in different places. Square brackets hold non-standard residues; d marks the D form. Peptide text beside a SMILES is read from it. pGlu = O=C1CC[C@@H](C(=O)O)N1
# Target: T1, ACE from pig kidney (Sus scrofa, UniProt F1RRW5)
# T1 construct: 1 mU ACE from pig kidney (EC 3.4.15.1 (Sigma)); purchased Sigma; host or cells: pig kidney (tissue-derived enzyme)
# T1 sequence (F1RRW5 34-1309): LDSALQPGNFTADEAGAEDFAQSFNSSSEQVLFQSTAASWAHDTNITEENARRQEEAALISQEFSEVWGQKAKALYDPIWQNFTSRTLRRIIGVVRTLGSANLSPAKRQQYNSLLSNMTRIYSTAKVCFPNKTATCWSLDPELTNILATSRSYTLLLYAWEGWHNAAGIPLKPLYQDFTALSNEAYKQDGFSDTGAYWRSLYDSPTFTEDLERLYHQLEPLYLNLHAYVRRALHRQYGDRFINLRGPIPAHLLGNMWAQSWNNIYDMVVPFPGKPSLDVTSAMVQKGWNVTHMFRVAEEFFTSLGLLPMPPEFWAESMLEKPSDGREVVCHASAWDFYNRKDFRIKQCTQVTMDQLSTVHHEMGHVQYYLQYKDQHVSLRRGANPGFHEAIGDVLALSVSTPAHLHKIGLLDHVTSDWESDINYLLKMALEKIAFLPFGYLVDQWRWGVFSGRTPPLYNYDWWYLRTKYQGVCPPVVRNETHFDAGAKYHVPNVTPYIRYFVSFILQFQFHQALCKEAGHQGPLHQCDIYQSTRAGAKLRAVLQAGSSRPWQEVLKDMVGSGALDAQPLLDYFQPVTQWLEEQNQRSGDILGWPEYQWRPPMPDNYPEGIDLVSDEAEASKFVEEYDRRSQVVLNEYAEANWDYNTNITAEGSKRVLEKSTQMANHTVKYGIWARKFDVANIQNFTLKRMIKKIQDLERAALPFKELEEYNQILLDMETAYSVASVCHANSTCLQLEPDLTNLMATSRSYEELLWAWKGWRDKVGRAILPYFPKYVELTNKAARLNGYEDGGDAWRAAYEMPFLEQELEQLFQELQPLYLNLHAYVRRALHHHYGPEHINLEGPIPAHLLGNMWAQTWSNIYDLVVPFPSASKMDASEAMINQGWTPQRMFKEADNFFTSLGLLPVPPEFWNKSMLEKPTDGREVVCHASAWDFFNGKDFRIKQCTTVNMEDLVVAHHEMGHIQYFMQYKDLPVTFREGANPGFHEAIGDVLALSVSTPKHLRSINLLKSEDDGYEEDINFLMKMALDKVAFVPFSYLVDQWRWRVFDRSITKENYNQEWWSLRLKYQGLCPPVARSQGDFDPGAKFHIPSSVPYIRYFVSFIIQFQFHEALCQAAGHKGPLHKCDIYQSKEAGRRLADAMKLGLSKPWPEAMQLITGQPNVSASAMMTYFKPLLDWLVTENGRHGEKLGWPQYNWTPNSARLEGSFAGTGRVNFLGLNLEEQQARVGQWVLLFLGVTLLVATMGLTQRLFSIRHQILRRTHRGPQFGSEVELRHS
# Experiment: biochemical
# Type: biochemical
# Text: These peptides were investigated for their inhibitory effect using an in vitro-ACE-inhibitor-assay with an angiotensin-converting-enzyme derived from pig kidney. Hippuryl-histidyl-leucin was used as a substrate. […] A concrete experimental description is given below.
# The principle of the ACE-inhibition-assay was established by Chejung, H. S., Cushman, D. W.: “Inhibition of homogenous angiotensin converting enzyme of rabbit lung by synthetic venom peptides of Bothrops jararaca.” in Biochimica et Biophysica Acta 293, 451-563 (1973).
# The assay was performed in 96 well HTRF-plates (Packard). The concentrations used for each well were:
# 1 mU ACE from pig kidney (EC 3.4.15.1 (Sigma)) in 30 μl of assay buffer (25 mM HEPES; 0,3 M NaCl, pH 8,2) and 20 μl inhibitor dissolved in assay buffer (0,35-200 μM). The reaction was started by adding 50 μl of 2 mM hippuryl-histidyl-leucin (Sigma) in assay buffer. The reaction was performed at room temperature (22° C.) for 30 minutes and terminated by adding 50 μl of 2 M NaOH. Afterwards 50 μl of 0,5% ortho-phtalaldehyd (Sigma) in methanol were added, 5 minutes later followed by 50 μl of 2,5 M HCl-solution to stabilize the developed fluorescence product.
# The results were used to calculate the % inhibition. The IC50-values were determined graphically from a curve showing the dose-reaction ratio.
# In order to minimize errors due to time-dependent differences, all pipetting steps were performed in a precise time schedule.
# [1] = inhibitor 0.78125 μM, replicates A-D
# [2] = inhibitor 1.5625 μM, replicates A-D
# [3] = inhibitor 3.125 μM, replicates A-D
# [4] = inhibitor 6.25 μM, replicates A-D
# [5] = inhibitor 12.5 μM, replicates A-D
# [6] = inhibitor 25 μM, replicates A-D
# [7] = inhibitor 50 μM, replicates A-D
# [8] = inhibitor 100 μM, replicates A-D
# [9] = inhibitor 200 μM, replicates A-D
smiles,measurement,setting,value
"CC[C@H](C)[C@H](NC(=O)[C@H](CCC(N)=O)NC(=O)[C@@H]1CCCN1C(=O)[C@H](CCCNC(=N)N)NC(=O)[C@@H]1CCCN1C(=O)[C@H](Cc1c[nH]c2ccccc12)NC(=O)[C@@H]1CCC(=O)N1)C(=O)N1CCC[C@H]1C(=O)N1CCC[C@H]1C(=O)O [BPP9a, reference compound]",IC50,,0.097 µM
same,fluorescence reading (ACE Inhibitor Assay),"inhibitor 0.0097 μM, replicates A-D",710140 and 732003 and 790803 and 704452
same,% inhibition (ACE Inhibitor Assay),"inhibitor 0.0097 μM, replicates A-D, 0.0097 µM",17.32% and 14.76% and 7.86% and 17.99%
same,fluorescence reading (ACE Inhibitor Assay),"inhibitor 0.0195 μM, replicates A-D",651703 and 661931 and 697146 and 649942
same,% inhibition (ACE Inhibitor Assay),"inhibitor 0.0195 μM, replicates A-D, 0.0195 µM",22.97% and 18.85% and 24.38%
same,fluorescence reading (ACE Inhibitor Assay),"inhibitor 0.039 μM, replicates A-D",555538 and 591749 and 454421 and 628809
same,% inhibition (ACE Inhibitor Assay),"inhibitor 0.039 μM, replicates A-D, 0.039 µM",35.44% and 31.2% and 47.3% and 26.86%
same,fluorescence reading (ACE Inhibitor Assay),"inhibitor 0.078 μM, replicates A-D",487053 and 445495 and 462323 and 446174
same,% inhibition (ACE Inhibitor Assay),"inhibitor 0.078 μM, replicates A-D, 0.078 µM",48.35% and 46.37% and 48.26%
same,fluorescence reading (ACE Inhibitor Assay),"inhibitor 0.15625 μM, replicates A-D",317736 and 311280 and 262186 and 309352
same,% inhibition (ACE Inhibitor Assay),"inhibitor 0.15625 μM, replicates A-D, 0.15625 µM",64.08% and 69.83% and 64.3%
same,fluorescence reading (ACE Inhibitor Assay),"inhibitor 0.3125 μM, replicates A-D",143514 and 147997 and 149103 and 141700
same,% inhibition (ACE Inhibitor Assay),"inhibitor 0.3125 μM, replicates A-D, 0.3125 µM",83.22% and 83.09% and 83.96%
same,fluorescence reading (ACE Inhibitor Assay),"inhibitor 0.625 μM, replicates A-D",60333 and 60929 and 57514 and 55616
same,% inhibition (ACE Inhibitor Assay),"inhibitor 0.625 μM, replicates A-D, 0.625 µM",93.43% and 93.82% and 94.05%
same,fluorescence reading (ACE Inhibitor Assay),"inhibitor 1.25 μM, replicates A-D",27485 and 26994 and 27156 and 25833
same,% inhibition (ACE Inhibitor Assay),"inhibitor 1.25 μM, replicates A-D, 1.25 µM",97.4% and 97.38% and 97.54%
same,fluorescence reading (ACE Inhibitor Assay),"inhibitor 2.5 μM, replicates A-D",13903 and 14148 and 15119 and 13979
same,% inhibition (ACE Inhibitor Assay),"inhibitor 2.5 μM, replicates A-D, 2.5 µM",98.91% and 98.79% and 98.93%
same,fluorescence reading (ACE Inhibitor Assay),"inhibitor 5 μM, replicates A-D",9634 and 9626 and 9656 and 10561
same,% inhibition (ACE Inhibitor Assay),"inhibitor 5 μM, replicates A-D, 5 µM",99.33%
same,inhibition at 0.0195 µM,"read-out: % inhibition (ACE Inhibitor Assay), inhibitor 0.0195 μM, replicates A-D",24.2%
same,inhibition at 0.078 µM,"read-out: % inhibition (ACE Inhibitor Assay), inhibitor 0.078 μM, replicates A-D",43.5%
same,inhibition at 0.15625 µM,"read-out: % inhibition (ACE Inhibitor Assay), inhibitor 0.15625 μM, replicates A-D",63.3%
same,inhibition at 0.3125 µM,"read-out: % inhibition (ACE Inhibitor Assay), inhibitor 0.3125 μM, replicates A-D",83.8%
same,inhibition at 0.625 µM,"read-out: % inhibition (ACE Inhibitor Assay), inhibitor 0.625 μM, replicates A-D",93.5%
same,inhibition at 1.25 µM,"read-out: % inhibition (ACE Inhibitor Assay), inhibitor 1.25 μM, replicates A-D",97.3%
same,inhibition at 2.5 µM,"read-out: % inhibition (ACE Inhibitor Assay), inhibitor 2.5 μM, replicates A-D",98.9%
same,inhibition at 5 µM,"read-out: % inhibition (ACE Inhibitor Assay), inhibitor 5 μM, replicates A-D",99.4%
CC(C)C[C@H](NC(=O)[C@@H]1CCCN1C(=O)[C@@H](N)CO)C(=O)N1CCC[C@H]1C(=O)N[C@@H](CCC(=O)O)C(=O)N[C@H](C(=O)N1CCC[C@H]1C(=O)N1CCC[C@H]1C(=O)O)C(C)C [Peptide S547],IC50,"ACE from pig kidney, determined graphically, read-out: IC50-value (ACE inhibition)",27 µM
same,fluorescence reading (ACE Inhibitor Assay),"inhibitor 0.39 μM, replicates A-D",968576 and 976911 and 1033152 and 933502
same,% inhibition (ACE Inhibitor Assay),"inhibitor 0.39 μM, replicates A-D, 0.39 µM",6.82% and 6.02% and 0.575% and 10.22%
same,fluorescence reading (ACE Inhibitor Assay),[1],935415 and 959358 and 928034 and 939702
same,inhibition at 0.78125 µM,[1],10%
same,% inhibition (ACE Inhibitor Assay),"inhibitor 0.78125 μM, replicates A-D, 0.78125 µM",7.72% and 10.75% and 9.62%
same,fluorescence reading (ACE Inhibitor Assay),[2],885259 and 942952 and 905782 and 900439
same,inhibition at 1.5625 µM,[2],14.9%
same,% inhibition (ACE Inhibitor Assay),"inhibitor 1.5625 μM, replicates A-D, 1.5625 µM",9.3% and 12.9% and 13.42%
same,fluorescence reading (ACE Inhibitor Assay),[3],853233 and 874120 and 919377 and 814056
same,inhibition at 3.125 µM,[3],18%
same,% inhibition (ACE Inhibitor Assay),"inhibitor 3.125 μM, replicates A-D, 3.125 µM",15.96% and 11.6% and 21.78%
same,fluorescence reading (ACE Inhibitor Assay),[4],737068 and 749780 and 773384 and 715138
same,inhibition at 6.25 µM,[4],29.2%
same,% inhibition (ACE Inhibitor Assay),"inhibitor 6.25 μM, replicates A-D, 6.25 µM",28% and 25.72% and 31.35%
same,fluorescence reading (ACE Inhibitor Assay),[5],661504 and 674042 and 682861 and 660883
same,inhibition at 12.5 µM,[5],36.5%
same,% inhibition (ACE Inhibitor Assay),"inhibitor 12.5 μM, replicates A-D, 12.5 µM",35.33% and 34.48% and 36.6%
same,fluorescence reading (ACE Inhibitor Assay),[6],561516 and 529553 and 559590 and 501835
same,inhibition at 25 µM,[6],46.2%
same,% inhibition (ACE Inhibitor Assay),"inhibitor 25 μM, replicates A-D, 25 µM",49.3% and 46.4% and 52%
same,fluorescence reading (ACE Inhibitor Assay),[7],367055 and 382045 and 460226 and 346051
same,inhibition at 50 µM,[7],65%
same,% inhibition (ACE Inhibitor Assay),"inhibitor 50 μM, replicates A-D, 50 µM",63.59% and 56.02% and 67.07%
same,fluorescence reading (ACE Inhibitor Assay),[8],229409 and 229360 and 232610 and 214324
same,inhibition at 100 µM,[8],78.4%
same,% inhibition (ACE Inhibitor Assay),"inhibitor 100 μM, replicates A-D, 100 µM",78.05% and 79.82%
same,fluorescence reading (ACE Inhibitor Assay),[9],115847 and 125213 and 123605 and 113488
same,inhibition at 200 µM,[9],89.4%
same,% inhibition (ACE Inhibitor Assay),"inhibitor 200 μM, replicates A-D, 200 µM",88.45% and 88.6% and 89.58%
CC[C@H](C)[C@H](NC(=O)[C@H](CC(C)C)NC(=O)[C@@H]1CCCN1C(=O)[C@H](CCSC)NC(=O)[C@@H]1CCC(=O)N1)C(=O)N1CCC[C@H]1C(=O)N[C@@H](CCCNC(=N)N)C(=O)N[C@@H](C)C(=O)N[C@@H](CO)C(=O)N[C@@H](CC(=O)O)C(=O)N[C@@H](CCC(=O)O)C(=O)N[C@@H](CC(N)=O)C(=O)N[C@H](C(=O)N1CCC[C@H]1C(=O)N1CCC[C@H]1C(=O)O)C(C)C [Peptide S682] ([pGlu]MPLIPRASDENVPP-OH),IC50,,150 µM
